Assay results reported in patent US20260184759A1, “CHIMERIC ANTIGEN RECEPTORS SPECIFIC FOR CONJUGATED BIOTIN” (Seattle Children's Hospital (dba Seattle Children's …, priority 2022, published 2026).

Assays:
[1] = test system: anti-conjugated biotin CAR T cells; test: ICCS assay with unconjugated biotin added to the co-incubation; assay type: cell-based, human; conditions: 0 ng, 100 ng, 500 ng, 2 ug unconjugated biotin during 4-hour co-incubation with labelled targets
Protocol: Additionally, unconjugated biotin was added to co-incubating cells for the entire 4-hour co-incubation to determine whether unconjugated biotin can block anti-conjugated biotin binding to target cells. Unconjugated biotin was added at 4 different doses: 0 ng (no competition), 100 ng, 500 ng, and 2 ug. […] The cells were then assessed for production of the intracellular cytokines IFN, IL2, and TNF.
Cytokine expression and activation/exhaustion markers of anti-biotin CAR T cells stimulated with targets cells were examined by ICCS. Target cells were labeled with appropriate intermediate adaptors and washed. T cells were then co-incubated with labeled and unlabeled target cells at an E:T ratio of 1:1 for 4 hours in the presence of Protein Transport Inhibitor (ThermoFisher Scientific) to block cytokine secretion. Cells were incubated in the appropriate medium for each target line. 100× Cell Stimulation Cocktail (ThermoFisher Scientific) was used as a positive control. An anti-CD107a BV711 antibody (BioLegend) was also included with the cells during the incubation. Cells were then labeled for dead cells using FVS520 live/dead stain (BD Horizon), washed, and subsequently FcR Blocked (Miltenyi Biotec). Surface markers were then stained using anti-CD4 PacBlue(BioLegend), anti-CD8 PerCP/Cy5.5 (Biolegend), and erbitux-APC (BD Biosciences). […]

[2] = test system: anti-conjugated biotin CARs; test: Competition assay against biotin-PEG-Cy5 binding (flow cytometry); set-up: species or system human; conditions: 440 nM biotin-PEG-Cy5 with 0.2, 1, 5 or 20 nM competitor, 30 minutes, room temperature
Protocol: First, cells expressing various CARs were incubated with 440 nM of biotin-PEG-Cy5 (FIG. 6) for 30 minutes at room temperature. Concurrently, they were exposed to 0 nM (no competition), 0.2 nM, 1 nM, 5 nM, or 20 nM of either unconjugated biotin or a non-fluorescent conjugated biotin (FIG. 7A).
One differentiating factor for this CAR when compared with other biotin-binding receptors previously described^28,29,31 is that the CAR may bind any biotin derivative but not the unmodified molecule itself (FIG. 2B). To confirm this selective binding to biotin conjugates, the panel of CAR T cells was incubated with 440 nM of a biotin-PEG-Cy5 conjugate, and titrated doses (20 nM, 5 nM, 1 nM, and 0.2 nM) of competition were incubated concurrently with the soluble antigen. Competition included another conjugated biotin, biotin-PEG2k-folate (FIG. 7A), and unmodified biotin (FIG. 7B).
To confirm anti-biotin CAR T cell binding to conjugated biotin, 440 nM of a 1.1 kDa biotin-PEG-Cy5 (Click Chemistry Tools) conjugate was incubated with the cells for 30 min at room temperature. For the competition assay, 0.2 nM, 1 nM, 5 nM, or 20 nM of either 2 kDa biotin-folate (NanoCS) or unconjugated biotin (Sigma-Adrich) were incubated concurrently with the cells and biotin-PEG-Cy5. Cells were washed and fixed in a 0.5% paraformaldehyde solution. […]

## O=C(O)CCCC[C@@H]1SC[C@@H]2NC(=O)N[C@@H]21 [unconjugated biotin, biotin]
[1]
  impact of unconjugated biotin on activation markers (CD8+ CAR T cells): no impact on the activation profiles of the CAR T cells
  impact of unconjugated biotin on intracellular cytokines (CD4+ CAR T cells): no impact on the activation profiles of the CAR T cells
[2]
  MFI of biotin-PEG-Cy5 binding under competition: not negatively impacted in their ability to bind biotin conjugated to fluorescent Cy5
[2]; listed as unmodified biotin
  MFI of biotin-PEG-Cy5 binding under competition: no decrease in MFI
